Reference: ChEMBL document CHEMBL1154707, “Morpholine derivatives greatly enhance the selectivity of mammalian target of rapamycin (mTOR) inhibitors” (J Med Chem, 2009)

Columns and labels:
[1] = Selectivity for FLAG-tagged human mTOR over PI3Kalpha
[2] = biological target: Serine/threonine-protein kinase mTOR (Homo sapiens, UniProt P42345); assay: Inhibition of FLAG-tagged human mTOR by DELFIA method
[3] = biological target: T1, Phosphatidylinositol 4,5-bisphosphate 3-kinase catalytic subunit delta isoform (Homo sapiens, UniProt O00329); assay: Inhibition of PI3Kdelta
T1 sequence (O00329 whole entry): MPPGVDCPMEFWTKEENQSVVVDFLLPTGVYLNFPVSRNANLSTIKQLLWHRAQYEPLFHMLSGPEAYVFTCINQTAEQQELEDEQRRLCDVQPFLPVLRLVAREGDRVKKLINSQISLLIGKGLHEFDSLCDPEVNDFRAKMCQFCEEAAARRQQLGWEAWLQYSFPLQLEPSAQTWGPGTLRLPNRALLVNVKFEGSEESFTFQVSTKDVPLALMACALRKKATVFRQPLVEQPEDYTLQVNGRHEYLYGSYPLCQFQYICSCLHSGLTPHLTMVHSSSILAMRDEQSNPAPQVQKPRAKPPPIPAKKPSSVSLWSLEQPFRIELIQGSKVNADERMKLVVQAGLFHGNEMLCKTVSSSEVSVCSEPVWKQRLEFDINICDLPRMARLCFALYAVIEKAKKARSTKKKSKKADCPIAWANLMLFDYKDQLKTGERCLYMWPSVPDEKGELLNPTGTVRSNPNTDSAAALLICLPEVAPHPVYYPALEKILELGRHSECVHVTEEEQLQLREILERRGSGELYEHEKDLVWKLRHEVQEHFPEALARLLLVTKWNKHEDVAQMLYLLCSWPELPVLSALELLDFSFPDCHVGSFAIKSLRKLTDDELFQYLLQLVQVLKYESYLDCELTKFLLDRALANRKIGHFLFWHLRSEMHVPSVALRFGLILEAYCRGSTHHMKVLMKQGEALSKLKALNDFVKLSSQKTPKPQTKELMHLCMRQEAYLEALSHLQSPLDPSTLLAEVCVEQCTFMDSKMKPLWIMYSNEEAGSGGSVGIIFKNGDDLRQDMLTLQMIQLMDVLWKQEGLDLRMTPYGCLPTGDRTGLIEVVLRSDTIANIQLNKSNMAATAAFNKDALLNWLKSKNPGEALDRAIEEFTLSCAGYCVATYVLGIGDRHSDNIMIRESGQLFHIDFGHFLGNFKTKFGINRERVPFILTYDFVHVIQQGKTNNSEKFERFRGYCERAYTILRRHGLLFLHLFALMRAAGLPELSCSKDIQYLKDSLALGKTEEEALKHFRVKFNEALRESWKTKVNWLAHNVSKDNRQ

[4] = biological target: Phosphatidylinositol 4,5-bisphosphate 3-kinase catalytic subunit alpha isoform (Homo sapiens, UniProt P42336); assay: Inhibition of PI3Kalpha
[5] = biological target: Phosphatidylinositol 4,5-bisphosphate 3-kinase catalytic subunit beta isoform (Homo sapiens, UniProt P42338); assay: Inhibition of PI3Kbeta
LNCaP = assay: Growth inhibition of human LNCAP cells after 3 days by MTS method; assay type: functional, cell-based; conditions: 72 h

Chain of Phosphatidylinositol 4,5-bisphosphate 3-kinase catalytic subunit alpha isoform (P42336 whole entry, canonical isoform): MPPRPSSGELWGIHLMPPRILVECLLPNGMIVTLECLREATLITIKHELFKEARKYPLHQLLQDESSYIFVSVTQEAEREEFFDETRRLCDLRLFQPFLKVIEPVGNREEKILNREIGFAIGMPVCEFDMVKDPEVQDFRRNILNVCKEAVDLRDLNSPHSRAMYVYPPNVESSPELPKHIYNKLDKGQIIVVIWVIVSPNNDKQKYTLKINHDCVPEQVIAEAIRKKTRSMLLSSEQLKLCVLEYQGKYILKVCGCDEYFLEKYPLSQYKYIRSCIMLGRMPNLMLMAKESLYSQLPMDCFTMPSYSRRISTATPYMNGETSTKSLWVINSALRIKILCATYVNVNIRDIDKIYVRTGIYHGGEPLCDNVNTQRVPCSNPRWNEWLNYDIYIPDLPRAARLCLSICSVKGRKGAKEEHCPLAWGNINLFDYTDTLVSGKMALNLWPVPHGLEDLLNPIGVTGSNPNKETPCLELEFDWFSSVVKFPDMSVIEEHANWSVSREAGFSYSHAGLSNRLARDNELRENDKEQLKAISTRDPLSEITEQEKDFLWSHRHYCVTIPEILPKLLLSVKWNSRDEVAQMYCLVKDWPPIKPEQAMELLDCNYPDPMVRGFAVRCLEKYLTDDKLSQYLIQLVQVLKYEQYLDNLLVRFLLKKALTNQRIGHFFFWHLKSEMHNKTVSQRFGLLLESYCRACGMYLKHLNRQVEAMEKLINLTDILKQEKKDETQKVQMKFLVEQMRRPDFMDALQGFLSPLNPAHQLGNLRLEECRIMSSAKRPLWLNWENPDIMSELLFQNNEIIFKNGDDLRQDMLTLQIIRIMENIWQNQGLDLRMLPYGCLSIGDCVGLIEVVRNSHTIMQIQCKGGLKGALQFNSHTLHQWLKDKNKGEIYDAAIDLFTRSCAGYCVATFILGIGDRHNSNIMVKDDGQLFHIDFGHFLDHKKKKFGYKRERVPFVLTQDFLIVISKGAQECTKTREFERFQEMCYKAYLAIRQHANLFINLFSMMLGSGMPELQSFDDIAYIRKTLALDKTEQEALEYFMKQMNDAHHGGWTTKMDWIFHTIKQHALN
Chain of Phosphatidylinositol 4,5-bisphosphate 3-kinase catalytic subunit beta isoform (P42338 whole entry, canonical isoform): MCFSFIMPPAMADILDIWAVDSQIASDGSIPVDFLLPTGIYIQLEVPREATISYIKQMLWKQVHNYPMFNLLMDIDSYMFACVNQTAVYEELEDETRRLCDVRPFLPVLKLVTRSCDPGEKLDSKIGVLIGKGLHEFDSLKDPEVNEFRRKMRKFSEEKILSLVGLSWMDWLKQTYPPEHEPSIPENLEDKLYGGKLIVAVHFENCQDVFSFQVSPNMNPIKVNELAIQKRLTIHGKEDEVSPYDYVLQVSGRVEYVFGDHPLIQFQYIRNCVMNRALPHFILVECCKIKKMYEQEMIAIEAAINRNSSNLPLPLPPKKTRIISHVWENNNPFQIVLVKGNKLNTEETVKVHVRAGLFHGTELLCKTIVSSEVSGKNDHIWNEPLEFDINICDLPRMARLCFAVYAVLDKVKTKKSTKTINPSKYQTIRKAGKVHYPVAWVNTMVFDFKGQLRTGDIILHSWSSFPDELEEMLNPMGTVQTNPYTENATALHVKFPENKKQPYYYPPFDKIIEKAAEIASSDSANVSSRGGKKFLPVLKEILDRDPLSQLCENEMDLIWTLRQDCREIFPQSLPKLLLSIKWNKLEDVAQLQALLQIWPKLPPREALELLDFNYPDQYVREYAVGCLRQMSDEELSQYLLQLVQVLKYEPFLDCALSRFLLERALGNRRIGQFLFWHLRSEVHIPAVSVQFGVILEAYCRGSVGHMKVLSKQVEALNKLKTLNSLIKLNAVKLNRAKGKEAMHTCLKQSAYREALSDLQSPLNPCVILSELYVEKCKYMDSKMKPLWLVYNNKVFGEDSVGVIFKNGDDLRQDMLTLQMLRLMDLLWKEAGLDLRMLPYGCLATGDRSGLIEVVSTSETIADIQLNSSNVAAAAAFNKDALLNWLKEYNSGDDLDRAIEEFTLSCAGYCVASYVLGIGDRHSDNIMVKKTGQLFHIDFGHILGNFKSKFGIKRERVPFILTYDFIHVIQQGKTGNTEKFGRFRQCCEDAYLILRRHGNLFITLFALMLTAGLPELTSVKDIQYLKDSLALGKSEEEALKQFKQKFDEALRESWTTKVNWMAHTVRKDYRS

Row | Structure (SMILES) | Ratio IC50 [1] | IC50 [2] [nM] | also measured
1 | CCNC(=O)Nc1ccc(-c2nc(N3CCOC[C@@H]3C)c3cnn(C4CCN(C(=O)OCC)CC4)c3n2)cc1 | 307 | 1.8 | –
2 | CCNC(=O)Nc1ccc(-c2nc(N3CCOCC3)c3cnn(C4CCN(C(=O)OCC)CC4)c3n2)cc1 | 4140 | 0.17 | –
3 | CNC(=O)Nc1ccc(-c2nc(N3CC4CCC(C3)O4)c3cnn(CC(F)(F)F)c3n2)cc1 | 3230 | 0.5 | –
4 | CCNC(=O)Nc1ccc(-c2nc(N3CCOC[C@H]3C)c3cnn(C4CCN(C(=O)OCC)CC4)c3n2)cc1 | 4980 | – | –
5 | CCOC(=O)N1CCC(n2ncc3c(N4CCOC[C@H]4C)nc(-c4ccc(NC(=O)Nc5ccncc5)cc4)nc32)CC1 | 1850 | – | –
6 | CNC(=O)Nc1ccc(-c2nc(N3CC4CCC(C3)O4)c3cnn(C4CCN(Cc5cccnc5)CC4)c3n2)cc1 | 1410 | 0.48 | –
7 | O=C(NCCF)Nc1ccc(-c2nc(N3CCOCC3)c3cnn(CC(F)(F)F)c3n2)cc1 | 524 | – | –
8 | CCOC(=O)N1CCC(n2ncc3c(N4CCOC[C@@H]4C)nc(-c4ccc(NC(=O)NCCF)cc4)nc32)CC1 | 289 | 1.8 | –
9 | CNC(=O)Nc1ccc(-c2nc(N3C4CCC3COC4)c3cnn(C4CCN(C(=O)OC)CC4)c3n2)cc1 | 19400 | – | –
10 | CNC(=O)Nc1ccc(-c2nc(N3C[C@H]4C[C@@H]3CO4)c3cnn(CC(F)(F)F)c3n2)cc1 | 51 | – | –
11 | COC(=O)N1CCC(n2ncc3c(N4CC5CCC(C4)O5)nc(-c4ccc(NC(=O)Nc5cccnc5)cc4)nc32)CC1 | 5580 | 0.11 | –
12 | COC(=O)N1CCC(n2ncc3c(N4CCOC(C)C4)nc(-c4ccc(NC(=O)Nc5cccnc5)cc4)nc32)CC1 (stereo unspecified) | 135 | – | –
13 | O=C(Nc1ccc(-c2nc(N3C4CCC3COC4)c3cnn(CC(F)(F)F)c3n2)cc1)Nc1cccnc1 | 1140 | – | –
14 | CCOC(=O)N1CCC(n2ncc3c(N4CCOC[C@H]4C)nc(-c4ccc(NC(=O)NCCF)cc4)nc32)CC1 | 3670 | 1.2 | –
15 | COC(=O)N1CCC(n2ncc3c(N4C5CCC4COC5)nc(-c4ccc(NC(=O)Nc5cccnc5)cc4)nc32)CC1 | 11100 | 0.16 | –
16 | CNC(=O)Nc1ccc(-c2nc(N3C4CCC3COC4)c3cnn(CC(F)(F)F)c3n2)cc1 | 2420 | – | –
17 | O=C(Nc1ccc(-c2nc(N3CC4CCC(C3)O4)c3cnn(CC(F)(F)F)c3n2)cc1)Nc1cccnc1 | 1820 | 0.19 | –

Row | Structure (SMILES) | Ratio IC50 [1] | IC50 [2] [nM] | also measured
18 | O=C(Nc1ccc(-c2nc(N3C[C@H]4C[C@@H]3CO4)c3cnn(CC(F)(F)F)c3n2)cc1)NC1CC1 | 179 | – | –
19 | COC(=O)N1CCC(n2ncc3c(N4CC5CCC(C4)O5)nc(-c4ccc(NC(=O)NC5CC5)cc4)nc32)CC1 | 6910 | 0.62 | IC50 [3]: 2630 nM; IC50 [4]: 4320 nM; IC50 [5]: > 10000 nM
20 | CNC(=O)Nc1ccc(-c2nc(N3CCOCC3)c3cnn(CC(F)(F)F)c3n2)cc1 | 194 | – | –
21 | CCNC(=O)Nc1ccc(-c2nc(N3C4CCC3COC4)c3cnn(C4CCN(C(=O)OC)CC4)c3n2)cc1 | 8890 | – | –
22 | O=C(Nc1ccc(-c2nc(N3C[C@@H]4C[C@H]3CO4)c3cnn(CC(F)(F)F)c3n2)cc1)Nc1cccnc1 | 482 | 1.2 | –
23 | CNC(=O)Nc1ccc(-c2nc(N3CCOC(C)C3)c3cnn(C4CCN(C(=O)OC)CC4)c3n2)cc1 (stereo unspecified) | 116 | 2.3 | –
24 | O=C(NCCF)Nc1ccc(-c2nc(N3CC4CCC(C3)O4)c3cnn(CC(F)(F)F)c3n2)cc1 | 11900 | 0.23 | –
25 | O=C(Nc1ccc(-c2nc(N3C[C@@H]4C[C@H]3CO4)c3cnn(CC(F)(F)F)c3n2)cc1)NC1CC1 | 2170 | 1.9 | –
26 | CNC(=O)Nc1ccc(-c2nc(N3C[C@@H]4C[C@H]3CO4)c3cnn(CC(F)(F)F)c3n2)cc1 | 380 | – | –
27 | COC(=O)N1CCC(n2ncc3c(N4CCOCC4)nc(-c4ccc(NC(=O)Nc5cccnc5)cc4)nc32)CC1 | 175 | – | –
28 | O=C(Nc1ccc(-c2nc(N3C[C@H]4C[C@@H]3CO4)c3cnn(CC(F)(F)F)c3n2)cc1)Nc1cccnc1 | 114 | – | –
29 | CCNC(=O)Nc1ccc(-c2nc(N3CCOC(C)C3)c3cnn(C4CCN(C(=O)OC)CC4)c3n2)cc1 (stereo unspecified) | 360 | 1.9 | –
30 | CNC(=O)Nc1ccc(-c2nc(N3CC4CCC(C3)O4)c3cnn(C4CCN(C(=O)OC)CC4)c3n2)cc1 | 8010 | 0.22 | –
31 | CCOC(=O)N1CCC(n2ncc3c(N4CCOC[C@@H]4C)nc(-c4ccc(NC(=O)Nc5ccncc5)cc4)nc32)CC1 | 32 | 0.58 | –
32 | CCNC(=O)Nc1ccc(-c2nc(N3CC4CCC(C3)O4)c3cnn(C4CCN(C(=O)OC)CC4)c3n2)cc1 | 26700 | 0.2 | IC50 (LNCaP): 9 nM
33 | O=C(Nc1ccc(-c2nc(N3CCOCC3)c3cnn(CC(F)(F)F)c3n2)cc1)Nc1cccnc1 | 43 | 0.23 | –
